Results on one molecule are retold here after publication PMC12080345 (Journal of medicinal chemistry, 2023).

This series in a line: Acute toxicity assay in mice. It is filed as in vivo. The settings on record: 200 mg/kg.

In the case of `COc1cc(Cn2ccc3cc(C(=O)NCC45C[C@H]6C[C@@H](C4)C[C@@H](C5)C6)ccc32)ccc1C(=O)NO` [4e, N-(((3r,5r,7r)-Adamantan-1-yl)methyl)-1-(4-(hydroxycarbamoyl)-3-methoxybenzyl)-1H-indole-5-carboxamide], the adverse effect entry is “no observed adverse effect”.
